According to US20230133958A1, “COMPOUNDS USEFUL IN MODULATING EGFR AND PI3K” (Mekanistic Therapeutics LLC, priority 2021, published 2023):

Key:
[1] = test system: SF-539; test: NCI COMPARE panel (SRB growth inhibition), SF-539; format: cell-based; settings: Homo sapiens; CNS Cancer, SF-539, 48 h
Method: (§1) The human tumor cell lines of the cancer screening panel are grown in RPMI 1640 medium containing 5% fetal bovine serum and 2 mM L-glutamine. For a typical screening experiment, cells are inoculated into 96 well microtiter plates in 100 µL at plating densities ranging from 5,000 to 40,000 cells/well depending on the doubling time of individual cell lines. After cell inoculation, the microtiter plates are incubated at 37° C., 5% CO2, 95% air and 100% relative humidity for 24 h prior to addition of experimental drugs.
(§2) After 24 h, two plates of each cell line are fixed in situ with TCA, to represent a measurement of the cell population for each cell line at the time of drug addition (Tz). Experimental drugs are solubilized in dimethyl sulfoxide at 400-fold the desired final maximum test concentration and stored frozen prior to use. […]
(§3) Following drug addition, the plates are incubated for an additional 48 h at 37° C., 5 % CO2, 95% air, and 100% relative humidity. […] Bound stain is subsequently solubilized with 10 mM trizma base, and the absorbance is read on an automated plate reader at a wavelength of 515 nm. […] Using the seven absorbance measurements [time zero, (Tz), control growth, (C), and test growth in the presence of drug at the five concentration levels (Ti)], the percentage growth is calculated at each of the drug concentrations levels. Percentage growth inhibition is calculated as: […]

[2] = test system: SNB-75; test: NCI COMPARE panel (SRB growth inhibition), SNB-75; format: cell-based; settings: Homo sapiens; CNS Cancer, SNB-75, 48 h
Method: as §1, §2, §3

[3] = test system: MOLT-4; test: NCI COMPARE panel (SRB growth inhibition), MOLT-4; format: cell-based; settings: Homo sapiens; Leukemia, MOLT-4, 48 h
Method: as §1, §2, §3

[4] = molecular target: PI3Kα (Homo sapiens, UniProt P42336); test: Z'-LYTE / Adapta biochemical kinase assay, PI3Kα; settings: for inhibition at 0.1 µM: concentration of 100 nM/liter, read-out: Percent Inhibition of target enzymes, PI3K A
PI3Kα, sequence (P42336 whole entry): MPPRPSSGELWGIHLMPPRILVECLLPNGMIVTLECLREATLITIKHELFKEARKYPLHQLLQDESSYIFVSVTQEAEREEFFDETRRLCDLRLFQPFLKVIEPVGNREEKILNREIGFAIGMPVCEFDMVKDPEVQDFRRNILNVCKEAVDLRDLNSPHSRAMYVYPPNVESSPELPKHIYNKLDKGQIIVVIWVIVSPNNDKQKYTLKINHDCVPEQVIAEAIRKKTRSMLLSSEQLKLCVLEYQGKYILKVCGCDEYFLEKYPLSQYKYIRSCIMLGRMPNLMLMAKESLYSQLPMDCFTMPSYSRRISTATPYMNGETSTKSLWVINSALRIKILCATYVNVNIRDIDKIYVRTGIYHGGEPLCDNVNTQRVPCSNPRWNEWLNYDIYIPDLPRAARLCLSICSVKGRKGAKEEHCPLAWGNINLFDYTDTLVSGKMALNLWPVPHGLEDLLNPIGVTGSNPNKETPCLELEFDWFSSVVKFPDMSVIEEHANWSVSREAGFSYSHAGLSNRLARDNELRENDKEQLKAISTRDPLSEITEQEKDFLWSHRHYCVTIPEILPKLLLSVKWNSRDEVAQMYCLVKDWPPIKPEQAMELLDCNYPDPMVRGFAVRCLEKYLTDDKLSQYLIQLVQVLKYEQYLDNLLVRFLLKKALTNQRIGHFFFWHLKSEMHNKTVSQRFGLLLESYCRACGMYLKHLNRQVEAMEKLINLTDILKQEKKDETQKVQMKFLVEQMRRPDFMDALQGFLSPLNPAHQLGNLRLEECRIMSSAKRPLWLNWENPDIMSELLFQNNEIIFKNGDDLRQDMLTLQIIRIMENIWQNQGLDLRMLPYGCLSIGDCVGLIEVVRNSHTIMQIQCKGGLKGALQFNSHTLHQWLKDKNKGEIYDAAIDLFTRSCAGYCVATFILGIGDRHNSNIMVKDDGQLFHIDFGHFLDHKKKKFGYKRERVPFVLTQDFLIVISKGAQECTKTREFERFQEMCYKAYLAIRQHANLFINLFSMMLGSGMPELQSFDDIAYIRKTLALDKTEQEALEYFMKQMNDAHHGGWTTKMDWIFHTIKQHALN
PI3Kα, sequence (P27986 whole entry partner): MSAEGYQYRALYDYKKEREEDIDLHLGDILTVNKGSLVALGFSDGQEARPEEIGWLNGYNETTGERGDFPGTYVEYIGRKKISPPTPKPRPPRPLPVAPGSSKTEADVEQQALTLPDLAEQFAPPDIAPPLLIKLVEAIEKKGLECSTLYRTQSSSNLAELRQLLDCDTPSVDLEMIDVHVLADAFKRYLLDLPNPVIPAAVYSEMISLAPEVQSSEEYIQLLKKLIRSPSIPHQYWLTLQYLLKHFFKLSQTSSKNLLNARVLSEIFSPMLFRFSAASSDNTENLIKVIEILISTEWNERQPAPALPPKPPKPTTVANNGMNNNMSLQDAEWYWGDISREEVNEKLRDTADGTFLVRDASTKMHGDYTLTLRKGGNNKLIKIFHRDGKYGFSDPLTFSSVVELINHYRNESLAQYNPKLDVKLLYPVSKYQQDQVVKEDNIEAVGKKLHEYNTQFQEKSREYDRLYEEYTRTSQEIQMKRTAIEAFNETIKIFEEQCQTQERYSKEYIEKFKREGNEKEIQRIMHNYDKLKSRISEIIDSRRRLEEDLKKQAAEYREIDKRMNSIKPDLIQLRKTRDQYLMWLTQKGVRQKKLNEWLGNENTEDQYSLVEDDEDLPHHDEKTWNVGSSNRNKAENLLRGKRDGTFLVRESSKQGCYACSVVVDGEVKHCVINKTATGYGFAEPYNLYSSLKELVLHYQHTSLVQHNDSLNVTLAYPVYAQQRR
Description: The Z′-LYTE® biochemical assay employs a fluorescence-based, coupled-enzyme format and is based on the differential sensitivity of phosphorylated and non-phosphorylated peptides to proteolytic cleavage. The peptide substrate is labeled with two fluorophores—one at each end—that make up a FRET pair. In the primary reaction, the kinase transfers the gamma-phosphate of ATP to a single tyrosine, serine or threonine residue in a synthetic FRET-peptide. In the secondary reaction, a site-specific protease recognizes and cleaves non-phosphorylated FRET-peptides. Phosphorylation of FRET-peptides suppresses cleavage by the Development Reagent. Cleavage disrupts FRET between the donor (i.e., coumarin) and acceptor (i.e., fluorescein) fluorophores on the FRET-peptide, whereas uncleaved, phosphorylated FRET-peptides maintain FRET. A ratiometric method, which calculates the ratio (the Emission Ratio) of donor emission to acceptor emission after excitation of the donor fluorophore at 400 nm, is used to quantitate reaction progress.
A significant benefit of this ratiometric method for quantitating reaction progress is the elimination of well-to-well variations in FRET-peptide concentration and signal intensities. As a result, the assay yields very high Z′-factor values (>0.7) at a low percent phosphorylation.
Both cleaved and uncleaved FRET-peptides contribute to the fluorescence signals and therefore to the Emission Ratio. The extent of phosphorylation of the FRET-peptide can be calculated from the Emission Ratio. The Emission Ratio will remain low if the FRET-peptide is phosphorylated (i.e., no kinase inhibition) and will be high if the FRET-peptide is non-phosphorylated (i.e., kinase inhibition).
Enzyme: The ADAPTA universal kinase assay is a homogenous, fluorescent based immunoassay for the detection of ADP. In contrast to ATP depletion assays, the ADAPTA assay is extremely sensitive to ADP formation such that a majority of the signal change occurs in the first 10-20% conversion of ATP to ADP. This makes the ADAPTA universal kinase assay ideally suited for use with low activity kinases.
The principle of the ADAPTA universal kinase assay is outlined below. The assay itself can be divided into two phases: a kinase reaction phase, and an ADP detection phase. In the kinase reaction phase, all components required for the kinase reaction are added to the well, and the reaction is allowed to incubate for 60 minutes. After the reaction, a detection solution consisting of a europium labeled anti-ADP antibody, an Alexa Fluor® 647 labeled ADP tracer, and EDTA (to stop the kinase reaction) is added to the assay well. ADP formed by the kinase reaction (in the absence of an inhibitor) will displace the Alexa Fluor® 647 labeled ADP tracer from the antibody, resulting in a decrease in the TR-FRET signal. In the presence of an inhibitor, the amount of ADP formed by the kinase reaction is reduced, and the resulting intact antibody-tracer interaction results in a high TR-FRET signal.
Test Compounds: The Test Compounds are screened in 1% DMSO (final) in the well. For 10 point titrations, 3-fold serial dilutions are conducted from the starting concentration of the customer’s choosing.
Peptide/Kinase Mixtures: All Peptide/Kinase Mixtures are diluted to a 2X working concentration in the appropriate Kinase Buffer.
ATP Solution: All ATP Solutions are diluted to a 4X working concentration in Kinase Buffer (50 mM HEPES pH 7.5, 0.01% BRIJ-35, 10 mM MgCl2,1 mM EGTA). ATP Km apparent is previously determined using a Z′-LYTE® assay.
Development Reagent Solution: The Development Reagent is diluted in Development Buffer.
Assay Protocol: Bar-coded Corning, low volume NBS, black 384-wellplate (Corning Cat. #4514) 1. 2.5 µL - 4X Test Compound or 100 nL 100X plus 2.4 µL kinase buffer. 2. 5 µL - 2X Peptide/Kinase Mixture. 3. 2.5 µL - 4X ATP Solution. 4. 30-second plate shake. 5. 60-minute Kinase Reaction incubation at room temperature. 6. 5 µL - Development Reagent Solution. 7. […]

| SMILES | GI50 [1] | GI50 [2] | GI50 [3] | IC50 ([4]; PI3Kα) | inhibition at 0.1 µM [4] |
| --- | --- | --- | --- | --- | --- |
| CS(=O)(=O)Nc1cc(-c2ccc3ncnc(Nc4cccc(Cl)c4F)c3c2)cnc1Cl [Compound 6, N-[2-chloro-5-[4-(3-chloro-2-fluoro-anilino)quinazolin-6-yl]-3-pyridyl] methanesulfonamide] | 125 to 250 nM | ≤ 75 nM | 125 to 250 nM | ≤ 2 nM | > 90% |
| CS(=O)(=O)Nc1cc(-c2ccc3ncc(C#N)c(Nc4cccc(Cl)c4F)c3c2)cnc1Cl [Compound 10, N-[2-chloro-5-[4-(3-chloro-2-fluoro-anilino)-3-cyano-6-quinolyl]-3-pyridyl]methanesulfonamide] | 125 to 250 nM | ≤ 75 nM | 75 to 125 nM | – | > 90% |
